Reference: patent publication US6737383B1, “Herbicidal oxadiazolidines” (priority 1999, dated 2004)

Assays:
[1] = system: bamyardgrass; experiment: Test B flood test barnyardgrass; format: in vivo, Echinochloa crus-galli
Outline: (§1)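 Flood test on plants grown to the 2-leaf stage; treated plants kept in greenhouse twelve to sixteen days, then visually rated against controls on a 0 (no effect) to 10 (complete control) scale.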

[2] = system: wheat; experiment: Test B pre/postemergence wheat; format: in vivo, Triticum aestivum
Outline: (§2)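 Response is a visual 0-to-10 score relative to untreated plants, where 0 means no effect and 10 means complete control, taken twelve to sixteen days after application. Treatments went onto soil at planting and onto foliage of 1- to 4-leaf plants, using a surfactant-containing non-phytotoxic solvent.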

[3] = system: morningglory; experiment: Test B pre/postemergence morningglory; format: in vivo, Ipomoea hederacea
Outline: as §2

[4] = system: giant foxtail; experiment: Test B pre/postemergence giant foxtail; format: in vivo, Setaria faberii
Outline: as §2

[5] = system: corn; experiment: Test B pre/postemergence corn; format: in vivo, Zea mays
Outline: as §2

[6] = system: velvetleaf; experiment: Test B pre/postemergence velvetleaf; format: in vivo, Abutilon theophrasti
Outline: as §2

[7] = system: purple nutsedge; experiment: Test B pre/postemergence purple nutsedge; format: in vivo, Cyperus rotundus
Outline: as §2

[8] = system: crabgrass; experiment: Test B pre/postemergence crabgrass; format: in vivo, Digitaria sanguinalis
Outline: as §2

[9] = system: wild oat; experiment: Test B pre/postemergence wild oat; format: in vivo, Avena fatua
Outline: as §2

[10] = system: pigweed; experiment: Test B pre/postemergence pigweed; format: in vivo, Amaranthus retroflexus
Outline: as §2

[11] = system: rice; experiment: Test B flood test rice; format: in vivo, Oryza sativa
Outline: as §1

[12] = system: duck salad; experiment: Test B flood test duck salad; format: in vivo, Heteranthera limosa
Outline: as §1

[13] = system: surinam grass; experiment: Test B pre/postemergence surinam grass; format: in vivo, Brachiaria decumbens
Outline: as §2

[14] = system: blackgrass; experiment: Test B pre/postemergence blackgrass; format: in vivo, Alopecurus myosuroides
Outline: as §2

[15] = system: soybean; experiment: Test B pre/postemergence soybean; format: in vivo, Glycine max
Outline: as §2

[16] = system: sugar beet; experiment: Test B pre/postemergence sugar beet; format: in vivo, Beta vulgaris
Outline: as §2

[17] = system: cocklebur; experiment: Test B pre/postemergence cocklebur; format: in vivo, Xanthium strumarium
Outline: as §2

[18] = system: bedstraw; experiment: Test B pre/postemergence bedstraw; format: in vivo, Galium aparine; conditions: for Bedstraw plant response rating: Rate 62 g/ha
Outline: as §2

[19] = system: smallflower flatsedge; experiment: Test B flood test smallflower flatsedge; format: in vivo, Cyperus difformis
Outline: as §1

[20] = system: rape; experiment: Test B pre/postemergence rape; format: in vivo, Brassica napus; conditions: for Rape plant response rating: Rate 62 g/ha
Outline: as §2

[21] = Rate 62 g/ha, headed Pre-emergence (flood test species), scale 0 to 10 (0 no effect, 10 complete control)
[22] = Rate 125 g/ha, Pre-emergence, flood test species, scale 0 to 10 where 0 is no effect and 10 is complete control
[23] = Rate 250 g/ha, Pre-emergence, flood-test species, scale 0 to 10, 0 is no effect, 10 is complete control
[24] = Rate 500 g/ha, Pre-emergence, flood test species, scale 0 to 10 (0 no effect, 10 complete control)
[25] = Postemergence, Rate 125 g/ha, scale 0 to 10, 0 is no effect, 10 is complete control
[26] = Preemergence, Rate 62 g/ha, scale of 0 to 10 where 0 is no effect and 10 is complete control
[27] = Preemergence, Rate 250 g/ha, scale of 0 to 10 where 0 is no effect and 10 is complete control
[28] = Preemergence, Rate 500 g/ha, scale of 0 to 10 where 0 is no effect and 10 is complete control
[29] = Rate 62 g/ha, Postemergence, scale 0 to 10 (0 no effect, 10 complete control)
[30] = Rate 500 g/ha, Postemergence, scale 0 to 10, 0 no effect, 10 complete control
[31] = Rate 250 g/ha, Postemergence, scale of 0 to 10 where 0 is no effect and 10 is complete control
[32] = Preemergence, scale of 0 to 10 where 0 is no effect and 10 is complete control
[33] = Postemergence, scale 0 to 10 (0 no effect, 10 complete control)

Compound: CC(C)N(C(=O)n1oc(=O)n(-c2ccc3ccccc3c2)c1=O)c1ccc(F)cc1 [Compound 329]
- Barnyardgrass plant response rating [1, 21]: 0
- Barnyardgrass plant response rating [1, 22]: 0
- Barnyardgrass plant response rating [1, 23]: 0
- Barnyardgrass plant response rating [1, 24]: 0
- Plant response rating, Wheat [2, 25]: 0
- Wheat plant response rating [2, 26]: 0
- Wheat plant response rating (0 to 10 scale) ([2]; Preemergence, Rate 125 g/ha): 0
- Wheat plant response rating [2, 27]: 0
- Wheat plant response rating [2, 28]: 0
- Wheat plant response rating [2, 29]: 0
- Plant response rating, Wheat [2, 30]: 0
- Plant response rating, Morningglory [3, 25]: 0
- Morningglory plant response rating [3, 26]: 0
- Morningglory plant response rating (0 to 10 scale) ([3]; Preemergence, Rate 125 g/ha): 0
- Morningglory plant response rating [3, 27]: 0
- Morningglory plant response rating [3, 28]: 0
- Morningglory plant response rating [3, 29]: 0
- Plant response rating, Morningglory [3, 30]: 0
- Plant response rating, Giant foxtail [4, 25]: 0
- Giant foxtail plant response rating [4, 26]: 0
- Giant foxtail plant response rating (0 to 10 scale) ([4]; Preemergence, Rate 125 g/ha): 0
- Giant foxtail plant response rating [4, 27]: 0
- Giant foxtail plant response rating [4, 28]: 3
- Giant foxtail plant response rating [4, 29]: 0
- Plant response rating, Giant foxtail [4, 30]: 0
- Plant response rating, Corn [5, 25]: 0
- Corn plant response rating [5, 26]: 0
- Corn plant response rating (0 to 10 scale) ([5]; Preemergence, Rate 125 g/ha): 0
- Corn plant response rating [5, 27]: 0
- Corn plant response rating [5, 28]: 0
- Corn plant response rating [5, 29]: 0
- Plant response rating, Corn [5, 30]: 0
- Plant response rating, Velvetleaf [6, 25]: 0
- Velvetleaf plant response rating [6, 26]: 0
- Velvetleaf plant response rating (0 to 10 scale) ([6]; Preemergence, Rate 125 g/ha): 0
- Velvetleaf plant response rating [6, 27]: 0
- Velvetleaf plant response rating [6, 28]: 0
- Velvetleaf plant response rating [6, 29]: 0
- Plant response rating, Velvetleaf [6, 30]: 0
- Plant response rating, Nutsedge [7, 25]: 0
- Nutsedge plant response rating [7, 26]: 0
- Nutsedge plant response rating [7, 27]: 0
- Nutsedge plant response rating [7, 29]: 0
- Plant response rating, Nutsedge [7, 30]: 0
- Plant response rating, Crabgrass [8, 25]: 0
- Crabgrass plant response rating [8, 26]: 0
- Crabgrass plant response rating (0 to 10 scale) ([8]; Preemergence, Rate 125 g/ha): 0
- Crabgrass plant response rating [8, 27]: 0
- Crabgrass plant response rating [8, 28]: 3
- Crabgrass plant response rating [8, 29]: 0
- Plant response rating, Crabgrass [8, 30]: 0
- Plant response rating, Wild oats [9, 25]: 0
- Wild oats plant response rating [9, 26]: 0
- Wild oats plant response rating (0 to 10 scale) ([9]; Preemergence, Rate 125 g/ha): 0
- Wild oats plant response rating [9, 27]: 0
- Wild oats plant response rating [9, 28]: 0
- Wild oats plant response rating [9, 29]: 0
- Plant response rating, Wild oats [9, 30]: 0
- Plant response rating, Redroot pigweed [10, 25]: 0
- Redroot pigweed plant response rating [10, 26]: 0
- Redroot pigweed plant response rating (0 to 10 scale) ([10]; Preemergence, Rate 125 g/ha): 0
- Redroot pigweed plant response rating [10, 27]: 0
- Redroot pigweed plant response rating [10, 28]: 0
- Redroot pigweed plant response rating [10, 29]: 0
- Plant response rating, Redroot pigweed [10, 30]: 0
- Rice plant response rating [11, 21]: 0
- Rice plant response rating [11, 22]: 0
- Rice plant response rating [11, 23]: 0
- Rice plant response rating [11, 24]: 0
- Ducksalad plant response rating [12, 21]: 0
- Ducksalad plant response rating [12, 22]: 0
- Ducksalad plant response rating [12, 23]: 0
- Ducksalad plant response rating [12, 24]: 0
- Plant response rating, B. signalgrass [13, 25]: 0
- B. signalgrass plant response rating [13, 26]: 0
- B. signalgrass plant response rating (0 to 10 scale, 0 is no effect, 10 is complete control) ([13]; Preemergence, Rate 125 g/ha): 0
- B. signalgrass plant response rating [13, 27]: 0
- B. signalgrass plant response rating [13, 28]: 0
- B. signalgrass plant response rating [13, 29]: 0
- Plant response rating, B. signalgrass [13, 31]: 0
- Plant response rating, B. signalgrass [13, 30]: 0
- Plant response rating, Blackgrass [14, 25]: 0
- Blackgrass plant response rating [14, 26]: 0
- Blackgrass plant response rating (0 to 10 scale) ([14]; Preemergence, Rate 125 g/ha): 0
- Blackgrass plant response rating [14, 27]: 0
- Blackgrass plant response rating [14, 28]: 0
- Blackgrass plant response rating [14, 29]: 0
- Plant response rating, Blackgrass [14, 31]: 0
- Plant response rating, Blackgrass [14, 30]: 0
- Plant response rating, Soybean [15, 25]: 1
- Soybean plant response rating [15, 26]: 0
- Soybean plant response rating (0 to 10 scale) ([15]; Preemergence, Rate 125 g/ha): 0
- Soybean plant response rating [15, 27]: 0
- Soybean plant response rating [15, 28]: 0
- Soybean plant response rating [15, 29]: 1
- Plant response rating, Soybean [15, 30]: 2
- Plant response rating, Sugarbeets [16, 25]: 0
- Sugarbeets plant response rating [16, 26]: 0
- Sugarbeets plant response rating (0 to 10 scale) ([16]; Preemergence, Rate 125 g/ha): 0
- Sugarbeets plant response rating [16, 27]: 0
- Sugarbeets plant response rating [16, 28]: 0
- Sugarbeets plant response rating [16, 29]: 0
- Plant response rating, Sugarbeets [16, 30]: 0
- Plant response rating, Cocklebur [17, 25]: 0
- Cocklebur plant response rating [17, 26]: 0
- Cocklebur plant response rating (0 to 10 scale) ([17]; Preemergence, Rate 125 g/ha): 0
- Cocklebur plant response rating [17, 27]: 0
- Cocklebur plant response rating [17, 28]: 0
- Cocklebur plant response rating [17, 29]: 0
- Plant response rating, Cocklebur [17, 30]: 4
- Plant response rating, Bedstraw [18, 25]: 0
- Bedstraw plant response rating [18, 32]: 0
- Bedstraw plant response rating (0 to 10 scale) ([18]; Preemergence, Rate 125 g/ha): 0
- Bedstraw plant response rating [18, 33]: 0
- S. Flatsedge plant response rating [19, 21]: 0
- S. Flatsedge plant response rating [19, 22]: 0
- S. Flatsedge plant response rating [19, 23]: 0
- S. Flatsedge plant response rating [19, 24]: 0
- Plant response rating, Rape [20, 25]: 0
- Rape plant response rating [20, 32]: 0
- Rape plant response rating (0 to 10 scale) ([20]; Preemergence, Rate 125 g/ha): 0
- Rape plant response rating [20, 33]: 0
- Plant response rating, Rape [20, 30]: 0
